# Measurements as given in publication PMC11084427 (2024).
# Experiments:
# [1] = system: poly A-poly U (pApU) (RNA, polymer) A/U; assay: UV melting, 260 nm; conditions: Na+ (sodium cacodylate, I = 0.05 M); pH 7.0; compound/polynucleotide r = 0.3; per base
# [2] = system: poly(dAdT)2 (DNA, polymer) AT; assay: UV melting, 260 nm; conditions: Na+ (sodium cacodylate, I = 0.05 M); pH 7.0; compound/polynucleotide r = 0.3; per base
# [3] = system: poly dA-poly dT (pdApdT) (DNA, polymer) A/T; assay: UV melting, 260 nm; conditions: Na+ (sodium cacodylate, I = 0.05 M), pH 7.0, per base
# [4] = system: poly(dGdC)2 (DNA, polymer) GC; assay: fluorescence titration, Scatchard; conditions: Na+ (sodium cacodylate, I = 0.05 M); pH 7.0, 25 °C; per phosphate; per base
# [5] = system: poly(dAdT)2 (DNA, polymer) AT; assay: fluorescence titration, Scatchard; conditions: Na+ (sodium cacodylate, I = 0.05 M); pH 7.0, 25 °C; per phosphate; per base
# [6] = system: poly A-poly U (pApU) (RNA, polymer) A/U; assay: fluorescence titration, Scatchard; conditions: Na+ (sodium cacodylate, I = 0.05 M), per phosphate, per base
# [7] = system: dAdTdT (ATT) triplex (DNA, polymer) A/T/T; assay: UV melting, 260 nm; conditions: Na+ (sodium cacodylate with NaCl, I = 0.1 M); pH 7.0, 1 mM EDTA; 7.5 μM compound, r = 0.3; transition Tm3→1 (third strand); per base
# [8] = system: poly dA-poly dT (pdApdT) (DNA, polymer) A/T; assay: fluorescence titration, Scatchard; conditions: Na+ (sodium cacodylate, I = 0.05 M); pH 7.0, 25 °C; per phosphate; per base
# [9] = system: dAdTdT (ATT) triplex (DNA, polymer) A/T/T; assay: fluorescence titration, Scatchard; conditions: Na+ (sodium cacodylate, I = 0.05 M); pH 7.0, 25 °C; per phosphate; per base
# [10] = compound/polynucleotide r = 0.3
ΔTm [1] [°C],ΔTm [2] [°C],"ΔTm [3, 10] [°C]",log Ka [4],log Ka [5],"log Ka ([6]; pH 5.0, 25 °C, not determinable at pH 7.0)",ΔTm [7] [°C],"ΔTm ([3]; r = 0.3, biphasic, second transition) [°C]",log Ka [8],log Ka [9],"log Ka ([6]; pH 7.0, 25 °C)",Structure (SMILES)
0 ± 0.5,1.2 ± 0.5,0.7 ± 0.5,–,–,–,–,–,–,–,–,COC(=O)[C@H](Cc1ccc2c(c1)c(C)nc1ccccc12)NC(=O)CNC(=O)CNC(=O)c1ccc(C(=O)NC(=N)N)[nH]1
0 ± 0.5,2.6 ± 0.5,1.5 ± 0.5,6.1,6.7,5.5,–,–,–,–,–,COC(=O)[C@H](Cc1ccc2c(c1)c(C)nc1ccccc12)NC(=O)CNC(=O)[C@H](CCCCN)NC(=O)c1ccc(C(=O)NC(=N)N)[nH]1
2.5 ± 0.5,1.0 ± 0.5,–,5.8,6.7,–,1.1 ± 0.5,2.1 ± 0.5,6.6,7.4,7.1,COC(=O)[C@H](Cc1ccc2c(c1)c(C)nc1ccccc12)NC(=O)[C@H](CCCCN)NC(=O)CNC(=O)c1ccc(C(=O)NC(=N)N)[nH]1
